Measured values from patent US12502410B2, “Preservation of pancreatic islet grafts in the extrahepatic space” (The Regents of the University of California, priority 2017, dated 2025).

Columns and labels:
eBC = eBC viability in nutrient deprived and/or hypoxic culture, PI staining and flow cytometry; format: cell-based, human; settings: 24 hours; for preservation of insulin-producing cells after stress: nutrient deprived or hypoxic; for beta cell survival: nutrient deprived and/or hypoxic
Experimental: (§1) SCIPC cultured for 24 hours in nutrient deprived and/or hypoxic conditions with or without GABA, PTH, and PTHrP At the end of the experiment, islet viability was measured using PI staining followed by flow cytometry. FIG. 11B depicts the effect of GABA, PTH and PTHrP on preserving insulin-producing cells after stress. FIG. 11C depicts quantification of viability of eBC cultured for 24 hours in nutrient deprived or hypoxic conditions with or without GABA, PTH, and PTHrP. […] Quantification of viability of cBC cultured for 24 hours in nutrient deprived and/or hypoxic conditions with or without leptin or serotonin. Islet viability measured using PI staining followed by flow cytometry.
(§2) In order to understand whether cell survival is due to secreted pro-survival or pro-angiogenic molecules, known PTG-released molecules were added to SCIPC and eBC cultures in vitro. While PTH is the main PTG-secreted hormone, previous publications also show GABA production within the PTG. GABA and PTH improve beta cell survival in nutrient deprived and/or hypoxic environment in vitro (FIG. 11A).

SCIPC [1] = assay: SCIPC viability in nutrient deprived and/or hypoxic culture, PI staining and flow cytometry; format: cell-based, human; settings: for preservation of insulin-producing cells after stress: SCIPC; for beta cell / SCIPC survival: nutrient deprived and/or hypoxic environment, 24 hours
Experimental: as §1, §2

SCIPC [2] = assay: Amino acid supplementation, viability of high density culture (PI staining); format: cell-based, human; settings: 3000 clusters/mL, RPMI+5% serum
Excerpt: (§3) FIG. 15A, FIG. 15B, and FIG. 15C depict the effect of nutrient supplementation on islet cell death in vitro. The effects of cell survival by supplementation of amino acids on mouse islets (FIG. 15A), human islets (FIG. 15B), and SCIPC (FIG. 15C) cultured in low or high density conditions (mouse=1000 islets/mL, human=1000 islets/mL, SCIPC=3000 clusters/mL) in RPMI+5% serum with addition of glucose. GLN: glutamine, TRP: tryptophan. Cell viability is quantified using PI staining via flow cytometry. Data shown are a summary of 3 independent experiments.
(§4) Various insulin-producing cells cultured in low (nutrient replete; mouse=200 islets/mL, human=200 islets/mL, SCIPC=200 clusters/mL) or high density conditions (nutrient limiting; mouse=1000 islets/mL, human=1000 islets/mL, SCIPC=3000 clusters/mL) in RPMI+5% serum with addition of glucose.

human islets = assay: as above; format: cell-based; settings: 1000 islets/mL, RPMI+5% serum
Excerpt: as §3, §4

mouse islets = assay: as above; format: cell-based; settings: 1000 islets/mL, RPMI+5% serum
Excerpt: as §3, §4

## parathyroid hormone-related protein [PTHrP]
eBC
  preservation of insulin-producing cells after stress: preferentially preserve
SCIPC [1]
  preservation of insulin-producing cells after stress: preferentially preserve
  beta cell / SCIPC survival: preserve SCIPC survival

## NCCCC(=O)O [GABA]
eBC
  preservation of insulin-producing cells after stress: preferentially preserve
SCIPC [1]
  preservation of insulin-producing cells after stress: preferentially preserve
  beta cell / SCIPC survival: improve

## NCCc1c[nH]c2ccc(O)cc12 [serotonin]
eBC
  beta cell survival: preserves beta cell survival

## NC(=O)CC[C@H](N)C(=O)O [glutamine]
SCIPC [2]
  viability under nutrient-limiting condition: preserved viability
Human islets
  viability under nutrient-limiting condition: preserved viability
Mouse islets
  viability under nutrient-limiting condition: preserved viability

## leptin
eBC
  beta cell survival: preserves beta cell survival

## N[C@@H](Cc1c[nH]c2ccccc12)C(=O)O [tryptophan]
SCIPC [2]
  viability under nutrient-limiting condition: preserved viability
Human islets
  viability under nutrient-limiting condition: preserved viability
Mouse islets
  viability under nutrient-limiting condition: preserved viability

B1: parathyroid hormone (protein, UniProt P01270 32-115, looked up)
Parathyroid hormone: SVSEIQLMHNLGKHLNSMERVEWLRKKLQDVHNFVALGAPLAPRDAGSQRPRKKEDNVLVESHEKSLGEADKADVNVLTKAKSQ
modifications: Parathyroid hormone
notes: main PTG-secreted hormone added to cultures
eBC
  preservation of insulin-producing cells after stress: preferentially preserve
SCIPC [1]
  preservation of insulin-producing cells after stress: preferentially preserve
  beta cell / SCIPC survival: improve
